Experimental data taken from patent US20040127446A1 (priority 1992, published 2004).
[invAb] = 3' inverted deoxyabasic cap; [amino-N] = 2'-deoxy-2'-amino nucleotide (N: the base); [I] = hypoxanthine (inosine); m = 2'-O-methyl; r = 2'-OH (RNA)

Test system: plus strand HCV RNA
Type: biochemical, Hepatitis C virus
Settings: plus strand (+) HCV site, 50 mM Tris-Cl, pH 8.0, 40 mM Mg2+ at 37°, trace substrate, enzymatic nucleic acid concentration of 500 nM or greater

Substance | % Substrate Cleaved in 3 hours [%]
22720 (GGAGAGGUGAUGGCAUGCACUAUGCGCGAUAUACA; sugars from the 5' end mmmmmmmmrrrmmmmmrmmmmmmmmmrmmmmmmmm, [invAb] at 3' end, backbone not given here) [compound 22720] | 77.74
22721 (UCUAAGGUGAUGGCAUGCACUAUGCGCGACACGGU; sugars from the 5' end mmmmmmmmrrrmmmmmrmmmmmmmmmrmmmmmmmm, [invAb] at 3' end, backbone not given here) [compound 22721] | 47.37
22722 (ACCACCUUGAUGGCAUGCACUAUGCGCGACUCCAC; sugars from the 5' end mmmmmmmmrrrmmmmmrmmmmmmmmmrmmmmmmmm, [invAb] at 3' end, backbone not given here) [compound 22722] | 75.84
22723 (ACAGGUUUGAUGGCAUGCACUAUGCGCGAACUCGU; sugars from the 5' end mmmmmmmmrrrmmmmmrmmmmmmmmmrmmmmmmmm, [invAb] at 3' end, backbone not given here) [compound 22723] | 61.58
22748 (AGGUGAAGCCGAAAGGCGAGUGAGGUCUAGCUGAG; 2'-O-methyl at 1, 2, 3, 4, 5, 6, 7, 8, 9, 10, 11, 12, 13, 14, 15, 16, [amino-N] at 17, 27, [invAb] at 3' end, other sugars and backbone not given here) [compound 22748] | 80.28
22749 (GGAAAAGGCCGAAAGGCGAGUGAGGUCUAACAGGA; 2'-O-methyl at 1, 2, 3, 4, 5, 6, 7, 8, 9, 10, 11, 12, 13, 14, 15, 16, [amino-N] at 17, 27, [invAb] at 3' end, other sugars and backbone not given here) [compound 22749] | 90.80
22750 (AGAAGAAGCCGAAAGGCGAGUGAGGUCUACGAGGAN; 2'-O-methyl, 2'-amino and inverted abasic, amino positions listed inconsistently, further chemistry not given here) [compound 22750] | 80.64
22751 (GAGUUGAGCCGAAAGGCGAGUGAGGUCUUGGAGUG; 2'-O-methyl at 1, 2, 3, 4, 5, 6, 7, 8, 9, 10, 11, 12, 13, 14, 15, 16, [amino-N] at 17, 27, [invAb] at 3' end, other sugars and backbone not given here) [compound 22751] | 14.85
22775 (AAGAGGACUGAUGAGGCCGUUAGGCCGAANAUAGAG; ribozyme; 2'-O-methyl at 1, 2, 3, 4, 5, 6, 7, 15, 16, 17, 18, 19, 20, 21, 22, 23, 24, 25, 26, 31, 32, 33, 34, 35, 36, [I] at 30, [invAb] at 3' end, other sugars and backbone not given here) [compound 22775] | 87.74
22776 (GGUGAACCUGAUGAGGCCGUUAGGCCGAANCUGAGA; ribozyme; 2'-O-methyl at 1, 2, 3, 4, 5, 6, 7, 15, 16, 17, 18, 19, 20, 21, 22, 23, 24, 25, 26, 31, 32, 33, 34, 35, 36, [I] at 30, [invAb] at 3' end, other sugars and backbone not given here) [compound 22776] | 84.55
22777 (CGAGGAACUGAUGAGGCCGUUAGGCCGAANAGAGGA; ribozyme; 2'-O-methyl at 1, 2, 3, 4, 5, 6, 7, 15, 16, 17, 18, 19, 20, 21, 22, 23, 24, 25, 26, 31, 32, 33, 34, 35, 36, [I] at 30, [invAb] at 3' end, other sugars and backbone not given here) [compound 22777] | 90.12
22778 (UGAUGGACUGAUGAGGCCGUUAGGCCGAANCUGUGA; ribozyme; 2'-O-methyl at 1, 2, 3, 4, 5, 6, 7, 15, 16, 17, 18, 19, 20, 21, 22, 23, 24, 25, 26, 31, 32, 33, 34, 35, 36, [I] at 30, [invAb] at 3' end, other sugars and backbone not given here) [compound 22778] | 83.77
22779 (UGAGGAACUGAUGAGGCCGUUAGGCCGAANGUGGAG; ribozyme; 2'-O-methyl at 1, 2, 3, 4, 5, 6, 7, 15, 16, 17, 18, 19, 20, 21, 22, 23, 24, 25, 26, 31, 32, 33, 34, 35, 36, [I] at 30, [invAb] at 3' end, other sugars and backbone not given here) [compound 22779] | 82.22
22943 (GCUGAGACUGAUGAGGCCGUUAGGCCGAAACGAGGA; 2'-O-methyl at 1, 2, 3, 4, 5, 6, 7, 15, 16, 17, 18, 19, 20, 21, 22, 23, 24, 25, 26, 31, 32, 33, 34, 35, 36, [invAb] at 3' end, other sugars and backbone not given here) [compound 22943] | 89.67
22944 (UCCUGUUCUGAUGAGGCCGUUAGGCCGAAAUGUGCC; 2'-O-methyl at 1, 2, 3, 4, 5, 6, 7, 15, 16, 17, 18, 19, 20, 21, 22, 23, 24, 25, 26, 31, 32, 33, 34, 35, 36, [invAb] at 3' end, other sugars and backbone not given here) [compound 22944] | 90.33
22945 (GGAAGGACUGAUGAGGCCGUUAGGCCGAAAGGAUGC; 2'-O-methyl at 1, 2, 3, 4, 5, 6, 7, 15, 16, 17, 18, 19, 20, 21, 22, 23, 24, 25, 26, 31, 32, 33, 34, 35, 36, [invAb] at 3' end, other sugars and backbone not given here) [compound 22945] | 82.54
22946 (CUCCACGCUGAUGAGGCCGUUAGGCCGAAACUCCUC; 2'-O-methyl at 1, 2, 3, 4, 5, 6, 7, 15, 16, 17, 18, 19, 20, 21, 22, 23, 24, 25, 26, 31, 32, 33, 34, 35, 36, [invAb] at 3' end, other sugars and backbone not given here) [compound 22946] | 78.06
22947 (GGAGUGACUGAUGAGGCCGUUAGGCCGAAAAUGCGC; 2'-O-methyl at 1, 2, 3, 4, 5, 6, 7, 15, 16, 17, 18, 19, 20, 21, 22, 23, 24, 25, 26, 31, 32, 33, 34, 35, 36, [invAb] at 3' end, other sugars and backbone not given here) [compound 22947] | 81.88
22971 (AGGAAGAGGCTAGCTACAACGAAGAGAAAN; 3' inverted abasic cap (B); misc_feature (30)..(30): n stands for inverted deoxyabasic derivative; misc_feature (1)..(7): 2'-O-Methyl; misc_feature (23)..(29): 2'-O-Methyl) [compound 22971] | 92.11
22972 (UGAGAGAGGCTAGCTACAACGAGAGGAAGN; 3' inverted abasic cap (B); Description of Artificial Sequence: Nucleic Acid; misc_feature (30)..(30): "n" is an inverted deoxyabasic moiety; misc_feature (1)..(7): 2'-O-Methyl; misc_feature (23)..(29): 2'-O-Methyl) [compound 22972] | 86.38
